The values below come from patent US20070004689A1, “Antiangiogenic agents” (priority 2004, published 2007).

Data set [1] in a line: Rat pharmacokinetics, cassette dosing, oral. It counts as in vivo. Conditions: oral 5 mg/kg, plasma. The procedure:
Pharmokinetics (PK): PO Cmax is the maximal concentration of drug achieved after oral administration in rats and AUC is the area under the curve. These parameters are an indication of oral bioavailability. PK parameters were determined using a cassette-dosing approach. A group of new chemical entities (NCEs) (usually 3-6 molecules) was dissolved in DMSO or ethanol and diluted with a solution of a dextrin polymer to the final working concentration (usually 0.2-2 mg/mL). Groups of three rats with in-dwelling catheters were dosed either orally (5 mg/kg) or i.v. (1 mg/kg) with the cassette of NCEs. Blood was collected at nine time points from 2 minutes to 24 hours. Plasma was separated and aliquots of the replicate samples were pooled for analysis. Plasma proteins were precipitated by addition of organic solvent (most often methanol or acetonitrile). For some analogs, an acid modifier was added to the precipitation mixture to enhance recovery. Precipitated proteins were removed by centrifugation and the supernatant was injected onto a C18 reversed phase column attached to an LC-MS-MS mass spectrometer. Analytes were partly resolved by a rapid (5 minute) gradient of organic modifier. Analytes were measured as either positive or negative ions, depending on ionization characteristics, in the SRM (or MS-MS) mode. Quantification was carried out by correlation of peak heights or areas for each analyte to a set of concentration standards of the same analytes diluted into blank plasma. Concentration vs. time data was analyzed by WinNonLin.

The test system of data set [2] is CYP450 (CYP1A2, CYP2C9, CYP2C19, CYP2D6, CYP3A) in pooled human liver microsomes. In words: CYP450 inhibition using human microsomes. It counts as in vitro ADME. The settings on record: test compound 0.034-25 μM, CYP inhibited. As for the experimental part: Determination of CYP450 inhibition and IC50 value using human microsomes: CYP450 inhibition provides a measure of potential issues with co-medication, since CYP450 enzymes metabolize many drugs. Microsomal incubation mixtures (500 μL) were prepared in HEPES buffer (50 mM HEPES, 15 mM MgCl2, 0.1 mM EDTA, pH 7.6) containing a NADPH regenerating system (1 mM NADPH, 10 mM glucose-6-phosphate 1 IU glucose-6-phosphate dehydrogenase), pooled human liver microsomes (0.5 mg protein), and 5 μL of 7 concentrations of compounds and positive control inhibitors (see Tables IV, V and VI).
After addition of the compounds or positive control inhibitors, the samples were pre-incubated at 37° C. for approximately 5 minutes. Subsequently, the P450 substrate cocktail were added to the reaction mixture and incubated for 20 minutes at 37° C. Reactions were terminated by the addition of 250 μL of methanol containing 5 μM dextrorphan as an internal standard (IS). The samples were vortexed briefly, placed on ice, and then centrifuged at approximately 12000×g for 5 minutes to remove debris. The supernatant from each sample was then transferred to a separate vial for LC-MS/MS analysis. Analysis to determine the amount of substrate specific metabolites (relative to the control samples) was carried out using reverse phase HPLC with tandem mass spectrometric detection (LC-MS/MS). Analysis of the data was carried out using Micromass MetaboLynx and QuanLynx software Versions 3.5 to determine the amount of the specific substrate metabolites produced in each sample (relative to the control samples).

Data set [3] relates to Rat hepatocyte suspensions. In words: Hepatocyte incubations, rat. It counts as in vitro ADME. The settings on record: rat hepatocytes, NR = no reaction; for Hepatocyte Rat 60/120′ (1 uM): 60′ / Hepatocyte Rat 60/120′ (5 uM): 60′: 60 minutes; for Hepatocyte Rat 60/120′ (1 uM): 60′ / Hepatocyte Rat 60/120′ (1 uM): 120′: in % (unit assumed); for Hepatocyte Rat 60/120′ (5 uM): 60′ / Hepatocyte Rat 60/120′ (5 uM): 120′: unit assumed; for Hepatocyte Rat 60/120′ (5 uM): 120′ / Hepatocyte Rat 60/120′ (1 uM): 120′: 120 minutes. The procedure: (§1) Hepatocyte Incubations: An in vitro measure of metabolism using cells from rat and human liver. Rat and human hepatocyte suspensions (10^6 cells per mL of serum-free (H)CL15 culture medium) were incubated with 2 concentrations (1 and 5 μM) of each of the compounds. Stock solutions were prepared in DMSO, and were further diluted in culture medium to the final test concentrations. 7-Ethoxycoumarin (7-EC) were included as a positive control substrate for P450. A 0.1 M 7-EC stock solution was prepared in DMSO, and the final assay concentration was 100 μM. The reactions were initiated by the addition of the substrates, incubated at 37° C., and terminated after 0, 60 and 120 minutes by addition of acetonitrile. The positive 7-EC control reactions were stopped with perchloric acid or ZnSO4 and BaOH after 60-minutes of incubation. The reaction mixture was centrifuged to remove the cell debris, and the supernatant was used for subsequent analysis by HPLC/LC-MS. If necessary, the supernatants were flash frozen in liquid N2 and stored at −70° C. until further analysis. HPLC was used to analyze product formation from 7-EC. Analyses to determine the concentration of the test compounds were carried out using reverse phase HPLC with tandem mass spectrometric detection (LC-MS/MS). Samples were analyzed to measure the disappearance of parent compound over time. The rate of metabolism was estimated by fitting a curve to the data for each concentration against time using GraphPad Prism Version 3.02 software.

Another data set relates to MCF7 cells. Nature of the data set: MCF7 estrogen-dependent proliferation assay (estrogenicity). It counts as cell-based, human. Conditions: stimulation index, 2ME2 defined as 1.00; less than 1.00 = reduced estrogenicity; 7 days of treatment. The text has this:
Cell Culture: Human umbilical vein endothelial cells (HUVEC) were obtained from Clonetics (San Diego, Calif.), MCF7 cells were the kind gift of Dr. Dorraya El Ashry (University of Michigan), MDA-MB-231 a human breast carcinoma, PC3 a human prostate carcinoma, and U87-MG a human glioma, cell lines were obtained from ATCC. HUVEC cultures were maintained for up to 5 passages in EGM containing bovine brain extract (Clonetics) and 1× antibiotic-antimycotic (BioWhittaker, Walkersville, Md.). MDA-MB-231, PC3, U87-MG and MCF-7 cells were maintained in DMEM/F12 (1:1) containing 10% (v/v) fetal bovine serum (Hyclone Laboratories, Logan, Utah) and 1× antibiotic-antimycotic. MCF7 cells were used between passage 60 and passage 100.
Proliferation Assays: Proliferation was measured by cell counting using a Coulter Zl cell counter (Coulter Corporation, Hialeah, Fla.) or by evaluation of DNA synthesis. Each condition was done in triplicate and experiments were repeated at least twice. To determine estrogenicity of the analogs, MCF7 estrogen-dependent proliferation assays were performed. The cells were seeded in complete media at 10,000 cells/well in a 24 well plate after allowing the cells to adhere overnight and the seeding density was determined by cell counts. Cells were washed with PBS (37° C.) and starved by placing them in IMEM-phenol red free media containing 2% charcoal-dextran fetal bovine-stripped serum (Valley Biomedical, Winchester, Va.) and 1× antibiotic-antimycotic. After 3 days of starvation, cells were treated with or without increasing concentrations of compounds, replacing the media every 2-3 days and counted after 7 days of treatment. In order to ensure that only the added test compounds stimulated growth, experiments were performed only with cell cultures that duplicated less than once during the starvation period. […]. Estradiol is used as a positive control.

Data set [4] concerns human hepatocyte suspensions. Nature of the data set: Hepatocyte incubations, human. It counts as in vitro ADME. Conditions: human hepatocytes, NR = no reaction; for Hepatocyte Human 60/120′ (1 uM): 60′ / Hepatocyte Human 60/120′ (5 uM): 60′: 60 minutes; for Hepatocyte Human 60/120′ (1 uM): 120′ / Hepatocyte Human 60/120′ (5 uM): 120′: 120 minutes. As for the experimental part:
as §1

As to `COc1cc2c(cc1C(N)=O)CC[C@@H]1[C@@H]2CC[C@]2(C)C(=O)CC[C@@H]12` [Compound 54, 2-methoxy-17-oxoestra-1,3,5(10)-triene-3-carboxamide], in data set [1] (rat), the AUC (in general, concentration integrated over time) amounted to 0.185 µM·h and the peak level (Cmax) was 47 nM. Further, the CYP450 inhib. entry in data set [2] is listed as “None”. For the same compound, in data set [3], the “Hepatocyte Rat 60/120′ (1 uM): 60′” value was 78, the Hepatocyte Rat 60/120′ (5 uM): 60′ was 95% and the Hepatocyte Rat 60/120′ (5 uM): 120′ stood at 101%. The “MCF7 SI Relative to 2ME2” value with MCF7 cells was 0.26. In data set [4], the “Hepatocyte Human 60/120′ (1 uM): 60′” value is recorded as 99, the “Hepatocyte Human 60/120′ (1 uM): 120′” value came out at 102 and the “Hepatocyte Human 60/120′ (5 uM): 120′” value was 103.

As for `COc1cc2c(cc1C(N)=O)CC[C@@H]1[C@@H]2CC[C@]2(C)CCC[C@@H]12` [Compound 57, (2-Methoxyestra-1,3,5(10)-trien-3-yl)-3-carboxamide], in data set [1], the Cmax (usually the peak of the concentration-time curve) is 130 nM and the Rat PO AUC (nM) came to 624 nM·h. Moreover, the CYP450 inhib. entry in data set [2] is given as “None”. In data set [3], the “Hepatocyte Rat 60/120′ (1 uM): 60′” value is 91, the “Hepatocyte Rat 60/120′ (1 uM): 120′” value was determined as 85, the Hepatocyte Rat 60/120′ (5 uM): 60′ came to 95% and the Hepatocyte Rat 60/120′ (5 uM): 120′ is 83%. The “MCF7 SI Relative to 2ME2” value with MCF7 cells was 0.31. Besides, in data set [4], the “Hepatocyte Human 60/120′ (1 uM): 60′” value is recorded as 111, the “Hepatocyte Human 60/120′ (1 uM): 120′” value is listed as 98, the “Hepatocyte Human 60/120′ (5 uM): 60′” value is listed as 117 and the “Hepatocyte Human 60/120′ (5 uM): 120′” value was 118.

In data set [1] (rat), `C=C1CC[C@H]2[C@@H]3CCc4cc(C(N)=O)c(OC)cc4[C@H]3CC[C@]12C` [Compound 60, 2-Methoxy-17-methyleneestra-1,3,5(10)-triene-3-carboxamide] showed an exposure (AUC) of 1.4 µM·h and a Cmax of 185 nM. Also, in data set [2], the CYP450 inhib. result is given as “None”. For the same compound, in data set [3], the “Hepatocyte Rat 60/120′ (1 uM): 60′” value was determined as 99, the “Hepatocyte Rat 60/120′ (1 uM): 120′” value is on record as 87 and the Hepatocyte Rat 60/120′ (5 uM): 60′ is 87%. For the same compound, the “MCF7 SI Relative to 2ME2” value in the data set with MCF7 cells amounted to 0.26. Also, in data set [4], the “Hepatocyte Human 60/120′ (1 uM): 120′” value is listed as 91, the “Hepatocyte Human 60/120′ (5 uM): 60′” value came out at 96 and the “Hepatocyte Human 60/120′ (5 uM): 120′” value was 93.

With `COc1cc2c(cc1C(N)=O)CC[C@@H]1[C@@H]2CC[C@]2(C)C=CC[C@@H]12` [Compound 63, 3-carboxamide-2-methoxy-1,3,5(10)16-estratetraene], in data set [1], the Cmax amounted to 127 nM and the Rat PO AUC (nM) was 961 nM·h. In data set [2], the CYP450 inhib. result is reported as “None”. Moreover, in data set [3], the “Hepatocyte Rat 60/120′ (1 uM): 60′” value was 77, the “Hepatocyte Rat 60/120′ (1 uM): 120′” value was 67, the Hepatocyte Rat 60/120′ (5 uM): 60′ came to 78% and the Hepatocyte Rat 60/120′ (5 uM): 120′ was determined as 87%. In addition, the “MCF7 SI Relative to 2ME2” value with MCF7 cells was 0.28. In addition, in data set [4], the “Hepatocyte Human 60/120′ (1 uM): 60′” value worked out at 52, the “Hepatocyte Human 60/120′ (1 uM): 120′” value was 70, the “Hepatocyte Human 60/120′ (5 uM): 60′” value was determined as 92 and the “Hepatocyte Human 60/120′ (5 uM): 120′” value was 71.
